Results as given in ChEMBL document CHEMBL3885881, “DrugMatrix”.

Organism: Rattus norvegicus
Experiment: DrugMatrix - Regimen: Daily Repeat
Type: toxicity, organism-based, Sprague-Dawley
Design: regimen Daily Repeat, gender Male, age 6-8 weeks
Conditions: in vivo, po, route oral GAVAGE, vehicle .5 % CMC; for ABSOLUTE BASOPHIL / ABSOLUTE EOSINOPHIL / ABSOLUTE LYMPHOCYTE / ABSOLUTE MONOCYTE / ABSOLUTE SEGMENTED NEUTROPHIL / BASOPHIL / EOSINOPHIL / ERYTHROCYTE COUNT / HEMATOCRIT / HEMOGLOBIN / LEUKOCYTE COUNT / LYMPHOCYTE / MEAN CORPUSCULAR HEMOGLOBIN / MEAN CORPUSCULAR HEMOGLOBIN CONCENTRATION / MEAN CORPUSCULAR VOLUME / MONOCYTE / NEUTROPHIL / NUCLEATED RED BLOOD CELLS / PLATELET COUNT: tissue Blood; for ALANINE AMINOTRANSFERASE / ALBUMIN / ALKALINE PHOSPHATASE / ASPARTATE AMINOTRANSFERASE / BLOOD UREA NITROGEN / CARBON DIOXIDE / CHLORIDE / CHOLESTEROL / CREATINE PHOSPHOKINASE / CREATININE / GLUCOSE / LACTATE DEHYDROGENASE / LIPASE / PHOSPHORUS / POTASSIUM / SODIUM / TOTAL BILIRUBIN / TOTAL PROTEIN / URIC ACID: tissue Plasma
[1] = 1200 mg/kg, 120 h, dose level High, time 5 day
[2] = […], 72 h, dose 3.3 mg/Kg, dose level Low, time 3 day
[3] = […], 120 h, dose 3.3 mg/Kg, dose level Low, time 5 day

CCC[C@@H]1C[C@@H](C(=O)N[C@@H]([C@H]2O[C@H](SC)[C@H](O)[C@@H](O)[C@H]2O)[C@@H](C)O)N(C)C1 [LINCOMYCIN]
ABSOLUTE BASOPHIL [1]: 0 CELLS/uL
ABSOLUTE EOSINOPHIL [1]: 0 CELLS/uL
ABSOLUTE LYMPHOCYTE [1]: 15154 CELLS/uL
ABSOLUTE MONOCYTE [1]: 0 CELLS/uL
ABSOLUTE SEGMENTED NEUTROPHIL [1]: 1379.33 CELLS/uL
BASOPHIL [1]: 0%
EOSINOPHIL [1]: 0%
ERYTHROCYTE COUNT [1]: 5.63 x10E6/uL
HEMATOCRIT [1]: 35.37%
HEMOGLOBIN [1]: 14.33 G/DL
LEUKOCYTE COUNT [1]: 16.53 x10E3/uL
LYMPHOCYTE [1]: 91.67%
MEAN CORPUSCULAR HEMOGLOBIN [1]: 25.5 pg
MEAN CORPUSCULAR HEMOGLOBIN CONCENTRATION [1]: 40.53 G/DL
MEAN CORPUSCULAR VOLUME [1]: 62.9 fL
MONOCYTE [1]: 0%
NEUTROPHIL [1]: 8.33%
NUCLEATED RED BLOOD CELLS [1]: 0 /100WBC
PLATELET COUNT [1]: 1331 x10E3/uL
ALANINE AMINOTRANSFERASE [1]: 58.33 u/L
ALBUMIN [1]: 4.13 G/DL
ALKALINE PHOSPHATASE [1]: 343.67 u/L
ASPARTATE AMINOTRANSFERASE [1]: 92.33 u/L
BLOOD UREA NITROGEN [1]: 18.33 mg/dL
CARBON DIOXIDE [1]: 25 mmol/L
CHLORIDE [1]: 100.67 MEQ/L
CHOLESTEROL [1]: 73.67 mg/dL
CREATINE PHOSPHOKINASE [1]: 558 u/L
CREATININE [1]: 0.27 mg/dL
GLUCOSE [1]: 137 mg/dL
LACTATE DEHYDROGENASE [1]: 505.33 u/L
LIPASE [1]: 12 u/L
PHOSPHORUS [1]: 12.77 mg/dL
POTASSIUM [1]: 6.92 MEQ/L
SODIUM [1]: 143.1 MEQ/L
TOTAL BILIRUBIN [1]: 0.17 mg/dL
TOTAL PROTEIN [1]: 6.1 G/DL
URIC ACID [1]: 1.63 mg/dL
ABSOLUTE BASOPHIL [2]: 0 CELLS/uL
ABSOLUTE EOSINOPHIL [2]: 46 CELLS/uL
ABSOLUTE LYMPHOCYTE [2]: 14091.33 CELLS/uL
ABSOLUTE MONOCYTE [2]: 108.67 CELLS/uL
ABSOLUTE SEGMENTED NEUTROPHIL [2]: 1220.67 CELLS/uL
BASOPHIL [2]: 0%
EOSINOPHIL [2]: 0.33%
ERYTHROCYTE COUNT [2]: 5.49 x10E6/uL
HEMATOCRIT [2]: 34.5%
HEMOGLOBIN [2]: 13.93 G/DL
LEUKOCYTE COUNT [2]: 15.47 x10E3/uL
LYMPHOCYTE [2]: 91%
MEAN CORPUSCULAR HEMOGLOBIN [2]: 25.43 pg
MEAN CORPUSCULAR HEMOGLOBIN CONCENTRATION [2]: 40.4 G/DL
MEAN CORPUSCULAR VOLUME [2]: 63 fL
MONOCYTE [2]: 0.67%
NEUTROPHIL [2]: 8%
NUCLEATED RED BLOOD CELLS [2]: 0 /100WBC
PLATELET COUNT [2]: 1331.67 x10E3/uL
ALANINE AMINOTRANSFERASE [2]: 53.67 u/L
ALBUMIN [2]: 4.23 G/DL
ALKALINE PHOSPHATASE [2]: 358.67 u/L
ASPARTATE AMINOTRANSFERASE [2]: 85.33 u/L
BLOOD UREA NITROGEN [2]: 15.67 mg/dL
CARBON DIOXIDE [2]: 29.67 mmol/L
CHLORIDE [2]: 101 MEQ/L
CHOLESTEROL [2]: 72 mg/dL
CREATINE PHOSPHOKINASE [2]: 274.33 u/L
CREATININE [2]: 0.21 mg/dL
GLUCOSE [2]: 154.67 mg/dL
LACTATE DEHYDROGENASE [2]: 216.67 u/L
LIPASE [2]: 9.67 u/L
PHOSPHORUS [2]: 12.97 mg/dL
POTASSIUM [2]: 7.32 MEQ/L
SODIUM [2]: 144.13 MEQ/L
TOTAL BILIRUBIN [2]: 0.2 mg/dL
TOTAL PROTEIN [2]: 5.83 G/DL
URIC ACID [2]: 2.13 mg/dL
ABSOLUTE BASOPHIL [3]: 0 CELLS/uL
ABSOLUTE EOSINOPHIL [3]: 0 CELLS/uL
ABSOLUTE LYMPHOCYTE [3]: 14059.67 CELLS/uL
ABSOLUTE MONOCYTE [3]: 0 CELLS/uL
ABSOLUTE SEGMENTED NEUTROPHIL [3]: 1173.67 CELLS/uL
BASOPHIL [3]: 0%
EOSINOPHIL [3]: 0%
ERYTHROCYTE COUNT [3]: 5.56 x10E6/uL
HEMATOCRIT [3]: 34.53%
HEMOGLOBIN [3]: 13.97 G/DL
LEUKOCYTE COUNT [3]: 15.23 x10E3/uL
LYMPHOCYTE [3]: 92.33%
MEAN CORPUSCULAR HEMOGLOBIN [3]: 25.1 pg
MEAN CORPUSCULAR HEMOGLOBIN CONCENTRATION [3]: 40.43 G/DL
MEAN CORPUSCULAR VOLUME [3]: 62.13 fL
MONOCYTE [3]: 0%
NEUTROPHIL [3]: 7.67%
NUCLEATED RED BLOOD CELLS [3]: 0 /100WBC
PLATELET COUNT [3]: 1194.33 x10E3/uL
ALANINE AMINOTRANSFERASE [3]: 57.33 u/L
ALBUMIN [3]: 4.37 G/DL
ALKALINE PHOSPHATASE [3]: 326 u/L
ASPARTATE AMINOTRANSFERASE [3]: 107.67 u/L
BLOOD UREA NITROGEN [3]: 17 mg/dL
CARBON DIOXIDE [3]: 28 mmol/L
CHLORIDE [3]: 100.33 MEQ/L
CHOLESTEROL [3]: 76.67 mg/dL
CREATINE PHOSPHOKINASE [3]: 786.33 u/L
CREATININE [3]: 0.23 mg/dL
GLUCOSE [3]: 160.67 mg/dL
LACTATE DEHYDROGENASE [3]: 134.33 u/L
LIPASE [3]: 9 u/L
PHOSPHORUS [3]: 12.5 mg/dL
POTASSIUM [3]: 6.98 MEQ/L
SODIUM [3]: 144.77 MEQ/L
TOTAL BILIRUBIN [3]: 0.17 mg/dL
TOTAL PROTEIN [3]: 6.33 G/DL
URIC ACID [3]: 2.3 mg/dL
